{"source": "patent US9463256B2", "about": "“Pretargeting kit, method and agents used therein” (KONINKLIJKE PHILIPS N.V., priority 2010, dated 2016)", "key": {"[1]": {"system": "LS174T tumor model", "assay": "Biodistribution experiments in tumor bearing mice pretargeted with CC49-TCO constructs", "type": "in vivo, Nude female Balb/C mice", "conditions": "3 h after injection", "procedure": "(§1) LS174T tumor model. The human colon cancer cell line LS174T was obtained from the ATCC and maintained in Eagle's minimal essential medium (Sigma) supplemented with 10% heat inactivated fetal calf serum (Gibco), penicillin (100 U/mL), streptomycin (100 μg/mL) and 2 mM Glutamax. Nude female Balb/C mice (20-25 g body weight, Charles River Laboratories) were inoculated subcutaneously with 5×10^6 cells in 100 μL sterile PBS.\nDual isotope biodistribution experiments were performed by injecting tumor bearing mice (n=3) intravenously with ^125I-labeled CC49-TCO constructs with and without PEG10 spacer (100 μg/100 μL per mouse, ca. […] 0.8 MBq). Three hours after tetrazine administration, the animals were anesthetized with isoflurane and sacrificed by cervical dislocation. Blood was withdrawn by heart puncture and organs and tissues of interest were harvested, blotted dry and weighed. The radioactivity of the samples was measured in a γ-counter along with standards to determine the % ID/gram. The energy windows were set to 10-80 keV and 100-510 keV for ^125I and ^111In, respectively."}, "[2]": {"system": "LS174T tumor model", "assay": "SPECT/CT imaging of tumor-bearing mice", "type": "in vivo", "procedure": "as §1\nTumor-bearing mice were injected with ^111In-tetrazine 28 (21 μg/75 μL per mouse, 20-50 MBq) 3 or 4 days after receiving 100 μg of a CC49-TCO construct without PEG10 spacer. Approximately 1 h later, the mice were anesthetized and positioned on an animal bed equipped with a nose cone for anesthesia and a sensor for respiratory monitoring. Single photon emission computed tomography (SPECT) was performed 2 h post tetrazine injection with a four-headed multi-pinhole small animal SPECT/CT imaging system (NanoSPECT, Bioscan Inc.). The SPECT acquisition (1 h total) was performed with 1.4 mm diameter pinholes and a 120-140 sec acquisition time per view (24 projections). The energy window for ^111In was set at 245 keV±15% and 171 keV±20%. Two-to-four days after the first scan, the mice were euthanized by anesthesia overdose and a second SPECT/CT scan was acquired overnight. Prior to each SPECT session a CT scan (2 sec per projection, 360 projections) was performed to obtain anatomical information on radioactivity distribution. After the acquisition, the data was reconstructed iteratively with the manufacturer's software (InVivoScope 1.39, patch 1). Regions of interest (ROIs) were drawn manually in triplicate for tumor, liver, kidney and thigh muscle. A phantom filled with a known amount of ^111In was used to calibrate the scanner for tissue radioactivity quantification. The image of three mice injected with CC49-TCO-O minor (CC49-20b), CC49-TCO-O major (CC49-20a) and CC49-TCO-C minor (CC49-14b) on a representative time scale are depicted in FIG. 13 A-C, respectively.\nFIG. 13: (left) SPECT/CT projections of live mice 2 h after injection of ^111In-tetrazine 28 (21 μg/75 μL per mouse, ca. 40 MBq), 3-4 days after the administration of (A) CC49-TCO-O minor (CC49-20b), (B) CC49-TCO-O major (CC49-20a) or (C) CC49-TCO-C minor (CC49-14b) (100 μg/100 μL per mouse). (Right), post mortem SPECT/CT scans of the same mice 2-4 days after the first imaging session. White arrows indicate tumors."}, "[3]": {"system": "LS174T tumor model", "assay": "Tumor targeting of CC49-TCO (20b) constructs", "type": "in vivo, Nude female Balb/C mice", "conditions": "3 h post-injection", "procedure": "as §1\n[…] The mice that received ^125I—CC49 were sacrificed 4 days post mAb injection. The mice that received ^125I—CC49-TCO 20b were injected with ^111In-DOTA-tetrazine 28 at 72 h post-mAb injection (25 eq. with respect to mAb, ca. 0.8 MBq) and were sacrificed 3 h after tetrazine injection. At the time of sacrifice, blood was collected by heart puncture and organs and tissues of interest were harvested, blotted dry, weighed and added with 1 mL PBS. The radioactivity in all samples was measured in a gamma-counter (Wizard 3, Perkin Elmer) with a dual-isotope protocol (energy windows set to 10-80 keV and 100-510 keV for ^125I and ^111In, respectively) along with standards to determine the percent injected dose per gram tissue (% ID/g)."}, "[4]": {"conditions": "3 days pretargeting with CC49-20a"}, "[5]": {"conditions": "3 days pretargeting with CC49-20b"}, "[6]": {"conditions": "mice pretreated with CC49-TCO(8.5) 72 h before"}, "[7]": {"conditions": "mice pretreated with CC49-TCO(12.7) 72 h before"}, "[8]": {"conditions": "mice pretreated with CC49-TCO(18.2) 72 h before"}}, "data": [{"smiles": "O=C([O-])CN1CCN(CC(=O)[O-])CCN(CC(=O)NCCOCCOCCOCCOCCOCCOCCOCCOCCOCCOCCOCCNC(=O)CCCC(=O)Nc2ccc(-c3nnc(-c4ccccn4)nn3)nc2)CCN(CC(=O)[O-])CC1.[111In+3]", "note": "[^111In-tetrazine 28]", "values": [{"measurement": "^111In-tetrazine in Muscle", "setting": "[1]; [4]", "result": "0.21 ± 0.02", "unit": "% ID/gram"}, {"measurement": "^111In-tetrazine in Spleen", "setting": "[1]; [4]", "result": "0.43 ± 0.03", "unit": "% ID/gram"}, {"measurement": "^111In-tetrazine in Tumor", "setting": "[1]; [4]", "result": "3.11 ± 0.80", "unit": "% ID/gram"}, {"measurement": "^111In-tetrazine in Blood", "setting": "[1]; [5]", "result": "0.59 ± 0.10", "unit": "% ID/gram"}, {"measurement": "^111In-tetrazine in Bone", "setting": "[1]; [5]", "result": "0.16 ± 0.02", "unit": "% ID/gram"}, {"measurement": "^111In-tetrazine in Brain", "setting": "[1]; [5]", "result": "0.03 ± 0.01", "unit": "% ID/gram"}, {"measurement": "^111In-tetrazine in Heart", "setting": "[1]; [5]", "result": "0.22 ± 0.03", "unit": "% ID/gram"}, {"measurement": "^111In-tetrazine in Kidney", "setting": "[1]; [5]", "result": "2.59 ± 0.24", "unit": "% ID/gram"}, {"measurement": "^111In-tetrazine in Liver", "setting": "[1]; [5]", "result": "0.64 ± 0.06", "unit": "% ID/gram"}, {"measurement": "^111In-tetrazine in Lung", "setting": "[1]; [5]", "result": "0.46 ± 0.07", "unit": "% ID/gram"}, {"measurement": "^111In-tetrazine in Muscle", "setting": "[1]; [5]", "result": "0.18 ± 0.09", "unit": "% ID/gram"}, {"measurement": "^111In-tetrazine in Spleen", "setting": "[1]; [5]", "result": "0.35 ± 0.08", "unit": "% ID/gram"}, {"measurement": "^111In-tetrazine in Tumor", "setting": "[1]; [5]", "result": "2.56 ± 0.65", "unit": "% ID/gram"}, {"measurement": "^111In-tetrazine uptake in tumor (SPECT/CT)", "setting": "[2]; 3 days after pre-treatment with CC49-TCO-O (both major and minor forms)", "result": "high ^111In-tetrazine uptake in tumor"}, {"measurement": "radioactivity uptake (SPECT/CT)", "setting": "[2]; after the administration of CC49-TCO-C minor, 4 days delay between the two treatments", "result": "rather low radioactivity uptake"}, {"measurement": "signal in the tumor at late scan (SPECT/CT)", "setting": "[2]; mice given CC49-TCO-C minor, 2 days after the early scan", "result": "still present"}, {"measurement": "tumor radioactivity at late scan (SPECT/CT)", "setting": "[2]; mice pre-treated with CC49-TCO 0, 72-96 h after ^111In-tetrazine injection", "result": "still highly radioactive"}, {"measurement": "^111In-tetrazine 28 in Blood", "setting": "[3]; [6]", "result": "0.45 ± 0.14", "unit": "% ID/g"}, {"measurement": "^111In-tetrazine 28 in Bone", "setting": "[3]; [6]", "result": "0.10 ± 0.03", "unit": "% ID/g"}, {"measurement": "^111In-tetrazine 28 in Brain", "setting": "[3]; [6]", "result": "0.02 ± 0.01", "unit": "% ID/g"}, {"measurement": "^111In-tetrazine 28 in Heart", "setting": "[3]; [6]", "result": "0.16 ± 0.03", "unit": "% ID/g"}, {"measurement": "^111In-tetrazine 28 in Kidney", "setting": "[3]; [6]", "result": "1.64 ± 0.28", "unit": "% ID/g"}, {"measurement": "^111In-tetrazine 28 in Liver", "setting": "[3]; [6]", "result": "0.44 ± 0.12", "unit": "% ID/g"}, {"measurement": "^111In-tetrazine 28 in Lung", "setting": "[3]; [6]", "result": "0.42 ± 0.06", "unit": "% ID/g"}, {"measurement": "^111In-tetrazine 28 in Muscle", "setting": "[3]; [6]", "result": "0.11 ± 0.05", "unit": "% ID/g"}, {"measurement": "^111In-tetrazine 28 in Spleen", "setting": "[3]; [6]", "result": "0.25 ± 0.05", "unit": "% ID/g"}, {"measurement": "^111In-tetrazine 28 in Tumor", "setting": "[3]; [6]", "result": "3.72 ± 1.45", "unit": "% ID/g"}, {"measurement": "^111In-tetrazine 28 in Blood", "setting": "[3]; [7]", "result": "0.37 ± 0.28", "unit": "% ID/g"}, {"measurement": "^111In-tetrazine 28 in Bone", "setting": "[3]; [7]", "result": "0.08 ± 0.02", "unit": "% ID/g"}, {"measurement": "^111In-tetrazine 28 in Brain", "setting": "[3]; [7]", "result": "0.01 ± 0.01", "unit": "% ID/g"}, {"measurement": "^111In-tetrazine 28 in Heart", "setting": "[3]; [7]", "result": "0.13 ± 0.05", "unit": "% ID/g"}, {"measurement": "^111In-tetrazine 28 in Kidney", "setting": "[3]; [7]", "result": "1.25 ± 0.24", "unit": "% ID/g"}, {"measurement": "^111In-tetrazine 28 in Liver", "setting": "[3]; [7]", "result": "0.29 ± 0.12", "unit": "% ID/g"}, {"measurement": "^111In-tetrazine 28 in Lung", "setting": "[3]; [7]", "result": "0.34 ± 0.10", "unit": "% ID/g"}, {"measurement": "^111In-tetrazine 28 in Muscle", "setting": "[3]; [7]", "result": "0.05 ± 0.00", "unit": "% ID/g"}, {"measurement": "^111In-tetrazine 28 in Spleen", "setting": "[3]; [7]", "result": "0.20 ± 0.06", "unit": "% ID/g"}, {"measurement": "^111In-tetrazine 28 in Tumor", "setting": "[3]; [7]", "result": "3.36 ± 1.69", "unit": "% ID/g"}, {"measurement": "^111In-tetrazine 28 in Blood", "setting": "[3]; [8]", "result": "0.12 ± 0.03", "unit": "% ID/g"}, {"measurement": "^111In-tetrazine 28 in Bone", "setting": "[3]; [8]", "result": "0.10 ± 0.02", "unit": "% ID/g"}, {"measurement": "^111In-tetrazine 28 in Brain", "setting": "[3]; [8]", "result": "0.04 ± 0.05", "unit": "% ID/g"}, {"measurement": "^111In-tetrazine 28 in Heart", "setting": "[3]; [8]", "result": "0.09 ± 0.03", "unit": "% ID/g"}, {"measurement": "^111In-tetrazine 28 in Kidney", "setting": "[3]; [8]", "result": "2.15 ± 0.17", "unit": "% ID/g"}, {"measurement": "^111In-tetrazine 28 in Liver", "setting": "[3]; [8]", "result": "0.26 ± 0.05", "unit": "% ID/g"}, {"measurement": "^111In-tetrazine 28 in Lung", "setting": "[3]; [8]", "result": "0.29 ± 0.01", "unit": "% ID/g"}, {"measurement": "^111In-tetrazine 28 in Muscle", "setting": "[3]; [8]", "result": "0.29 ± 0.43", "unit": "% ID/g"}, {"measurement": "^111In-tetrazine 28 in Spleen", "setting": "[3]; [8]", "result": "0.20 ± 0.02", "unit": "% ID/g"}, {"measurement": "^111In-tetrazine 28 in Tumor", "setting": "[3]; [8]", "result": "1.21 ± 0.22", "unit": "% ID/g"}]}]}
